Results from patent US11566007B2, “Ras inhibitors” (Revolution Medicines, Inc., priority 2019, dated 2023).

Experiments:
[1] = molecular target: K-Ras G13C (Homo sapiens (Human), UniProt P01116+P62937, G13C); experiment: Ras-Raf (BRAF RBD) disruption / FRET / MOA assay, KRAS G13C; assay type: biochemical; settings: KRAS G13C; Ras-Raf disruption/FRET/MOA assay; read-out: IC50* KRAS G13C FRET data
Method in brief: (§1)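 A 10-point, 3-fold dilution series topping at 30 μM final was incubated 3 h at 25° C with the Ras/cyclophilin A/BRAF RBD mixture.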

[2] = molecular target: NRAS WT (Homo sapiens (Human), UniProt P01111+P62937); experiment: Ras-Raf (BRAF RBD) disruption / FRET / MOA assay, NRAS WT; assay type: biochemical; settings: read-out: IC50* NRAS WT FRET data
Sequence of NRAS WT (P01111 whole entry): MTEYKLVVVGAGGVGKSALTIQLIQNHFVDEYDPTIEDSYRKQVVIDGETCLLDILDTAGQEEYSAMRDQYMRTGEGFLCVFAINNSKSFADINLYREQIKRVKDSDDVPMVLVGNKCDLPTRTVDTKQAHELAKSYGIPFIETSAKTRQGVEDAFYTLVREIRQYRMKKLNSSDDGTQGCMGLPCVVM
Sequence of NRAS WT (P62937 whole entry): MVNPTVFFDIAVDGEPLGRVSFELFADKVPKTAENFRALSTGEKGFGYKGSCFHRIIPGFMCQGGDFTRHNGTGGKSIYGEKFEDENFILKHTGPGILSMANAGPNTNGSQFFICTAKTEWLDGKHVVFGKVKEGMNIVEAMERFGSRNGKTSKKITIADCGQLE
Method in brief: (§2)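 Compounds (30 μM top final, 10-point 3-fold dilutions) incubated 3 h at 25° C with nucleotide-loaded Ras, cyclophilin A and BRAF RBD. Detection with 10 nM anti-His Eu-W1024 and 50 nM anti-GST allophycocyanin over another 1.5 h. Lowered TR-FRET ratio relative to DMSO wells gives IC50.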

[3] = test system: NCI-H358 (K-Ras G12C); experiment: CellTiter-Glo cell viability assay, NCI-H358; assay type: cell-based, human; settings: Homo sapiens, NCI-H358, 120 h, NCI-H358, 5-day treatment; class symbols; read-out: Additional H358 Cell Viability assay data (K-Ras G12C, IC50)
Method in brief: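 Compounds dispensed directly onto seeded K-Ras mutant cells; plates read on day 5 after ~30 min equilibration to room temperature, by CellTiter-Glo luminescence. Signal normalized as (sample/mean DMSO)×100, then fitted to a four-parameter logistic curve.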

[4] = molecular target: K-Ras G12C (Homo sapiens (Human), UniProt P01116+P62937, G12C); experiment: Ras-Raf (BRAF RBD) disruption / FRET / MOA assay, KRAS G12C; assay type: biochemical; settings: KRAS G12C; Ras-Raf disruption/FRET/MOA assay; read-out: IC50* KRAS G12C FRET data
Sequence of K-Ras G12C (P01116-2 other isoform, or with tags, fused parts or gaps G12C): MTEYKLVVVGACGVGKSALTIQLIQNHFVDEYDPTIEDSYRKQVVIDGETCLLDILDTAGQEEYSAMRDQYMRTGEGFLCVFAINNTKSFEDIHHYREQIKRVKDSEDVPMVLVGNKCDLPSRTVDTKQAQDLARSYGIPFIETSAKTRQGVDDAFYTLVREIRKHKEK
Sequence of K-Ras G12C (P62937 whole entry): as the sequence (P62937 whole entry) above
Method in brief: as §1

[5] = molecular target: KRAS WT (Homo sapiens (Human), UniProt P01116+P62937); experiment: Ras-Raf (BRAF RBD) disruption / FRET / MOA assay, KRAS WT; assay type: biochemical; settings: read-out: IC50* KRAS WT FRET data
Sequence of KRAS WT (P01116-2 other isoform, or with tags, fused parts or gaps): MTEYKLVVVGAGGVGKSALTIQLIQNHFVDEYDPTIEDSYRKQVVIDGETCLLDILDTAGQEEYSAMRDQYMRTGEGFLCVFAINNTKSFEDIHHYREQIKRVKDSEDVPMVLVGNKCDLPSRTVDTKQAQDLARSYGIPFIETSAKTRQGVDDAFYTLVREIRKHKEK
Sequence of KRAS WT (P62937 whole entry): as the sequence (P62937 whole entry) above
Method in brief: as §1

[6] = molecular target: NRAS Q61K (Homo sapiens (Human), UniProt P01111+P62937, Q61K); experiment: Ras-Raf (BRAF RBD) disruption / FRET / MOA assay, NRAS Q61K; assay type: biochemical; settings: NRAS Q61K; Ras-Raf disruption/FRET/MOA assay; read-out: IC50* NRAS Q61K FRET data
Sequence of NRAS Q61K (P01111 whole entry Q61K): as the sequence (P01111 whole entry) above, with Q61K counted along it
Sequence of NRAS Q61K (P62937 whole entry): as the sequence (P62937 whole entry) above
Method in brief: as §2

[7] = molecular target: KRAS Q61H (Homo sapiens (Human), UniProt P01116+P62937, Q61H); experiment: Ras-Raf (BRAF RBD) disruption / FRET / MOA assay, KRAS Q61H; assay type: biochemical; settings: Ras-Raf disruption/FRET/MOA assay; class symbols; read-out: KRAS Q61H FRET data IC50
Sequence of KRAS Q61H (P01116-2 other isoform, or with tags, fused parts or gaps Q61H): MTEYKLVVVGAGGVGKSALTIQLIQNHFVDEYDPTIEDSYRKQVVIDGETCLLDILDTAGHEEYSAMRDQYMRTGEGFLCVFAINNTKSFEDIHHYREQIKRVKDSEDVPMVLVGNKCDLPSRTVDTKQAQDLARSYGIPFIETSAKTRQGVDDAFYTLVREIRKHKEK
Sequence of KRAS Q61H (P62937 whole entry): as the sequence (P62937 whole entry) above
Method in brief: as §2

[8] = molecular target: NRAS Q61R (Homo sapiens (Human), UniProt P01111+P62937, Q61R); experiment: Ras-Raf (BRAF RBD) disruption / FRET / MOA assay, NRAS Q61R; assay type: biochemical; settings: NRAS Q61R; Ras-Raf disruption/FRET/MOA assay; read-out: IC50* NRAS Q61R FRET data
Sequence of NRAS Q61R (P01111 whole entry Q61R): as the sequence (P01111 whole entry) above, with Q61R counted along it
Sequence of NRAS Q61R (P62937 whole entry): as the sequence (P62937 whole entry) above
Method in brief: as §2

[9] = molecular target: NRAS G12C (Homo sapiens (Human), UniProt P01111+P62937, G12C); experiment: Ras-Raf (BRAF RBD) disruption / FRET / MOA assay, NRAS G12C; assay type: biochemical; settings: read-out: IC50* NRAS G12C FRET data
Sequence of NRAS G12C (P01111 whole entry G12C): as the sequence (P01111 whole entry) above, with G12C counted along it
Sequence of NRAS G12C (P62937 whole entry): as the sequence (P62937 whole entry) above
Method in brief: as §1

[10] = molecular target: KRAS G12S (Homo sapiens (Human), UniProt P01116+P62937, G12S); experiment: Ras-Raf (BRAF RBD) disruption / FRET / MOA assay, KRAS G12S; assay type: biochemical; settings: Ras-Raf disruption/FRET/MOA assay; class symbols; read-out: KRAS G12S FRET data IC50
Sequence of KRAS G12S (P01116-2 other isoform, or with tags, fused parts or gaps G12S): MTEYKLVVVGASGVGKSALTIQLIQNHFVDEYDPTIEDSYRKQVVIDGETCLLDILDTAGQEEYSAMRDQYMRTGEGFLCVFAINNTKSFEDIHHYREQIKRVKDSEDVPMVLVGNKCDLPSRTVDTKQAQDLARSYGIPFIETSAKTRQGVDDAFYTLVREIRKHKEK
Sequence of KRAS G12S (P62937 whole entry): as the sequence (P62937 whole entry) above
Method in brief: as §1

[11] = molecular target: KRAS G12V (Homo sapiens (Human), UniProt P01116+P62937, G12V); experiment: Ras-Raf (BRAF RBD) disruption / FRET / MOA assay, KRAS G12V; assay type: biochemical; settings: read-out: IC50* KRAS G12V FRET data
Sequence of KRAS G12V (P01116-2 other isoform, or with tags, fused parts or gaps G12V): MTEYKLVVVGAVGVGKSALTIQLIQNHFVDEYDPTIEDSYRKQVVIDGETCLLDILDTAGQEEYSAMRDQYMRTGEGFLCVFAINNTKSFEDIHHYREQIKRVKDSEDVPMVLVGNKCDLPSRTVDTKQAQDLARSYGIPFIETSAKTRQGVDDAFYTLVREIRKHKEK
Sequence of KRAS G12V (P62937 whole entry): as the sequence (P62937 whole entry) above
Method in brief: as §1

[12] = molecular target: KRAS G12D (Homo sapiens (Human), UniProt P01116+P62937, G12D); experiment: Ras-Raf (BRAF RBD) disruption / FRET / MOA assay, KRAS G12D; assay type: biochemical; settings: Ras-Raf disruption/FRET/MOA assay; class symbols; read-out: KRAS G12D FRET data IC50
Sequence of KRAS G12D (P01116-2 other isoform, or with tags, fused parts or gaps G12D): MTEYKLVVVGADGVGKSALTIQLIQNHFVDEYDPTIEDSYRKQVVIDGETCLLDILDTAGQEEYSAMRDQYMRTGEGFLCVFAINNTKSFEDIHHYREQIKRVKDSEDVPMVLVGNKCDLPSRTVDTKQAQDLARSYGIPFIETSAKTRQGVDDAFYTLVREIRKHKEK
Sequence of KRAS G12D (P62937 whole entry): as the sequence (P62937 whole entry) above
Method in brief: as §1

Sequence of K-Ras G13C (P01116-2 other isoform, or with tags, fused parts or gaps G13C): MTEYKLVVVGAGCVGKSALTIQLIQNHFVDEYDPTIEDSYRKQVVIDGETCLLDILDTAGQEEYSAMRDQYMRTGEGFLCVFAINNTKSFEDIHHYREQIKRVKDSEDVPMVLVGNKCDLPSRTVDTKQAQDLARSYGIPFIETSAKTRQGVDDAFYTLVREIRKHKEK
Sequence of K-Ras G13C (P62937 whole entry): as the sequence (P62937 whole entry) above

SMILES	IC50 [1] [µM]	IC50 [2] [µM]	IC50 [3] [µM]	IC50 [4] [µM]	IC50 [5] [µM]	IC50 [6] [µM]	IC50 [7] [µM]	IC50 [8] [µM]	IC50 [9] [µM]	IC50 [10] [µM]	IC50 [11] [µM]	IC50 [12] [µM]
C=CC(=O)N(C)C[C@@H]1CCN(C(=O)N(C)[C@H](C(=O)N[C@H]2Cc3nc(cs3)-c3ccc4c(c3)c(c(-c3cccnc3[C@H](C)OC)n4CC)CC(C)(C)COC(=O)[C@@H]3CCCN(N3)C2=O)C(C)C)C1 (atropisomer, axis not shown) [Example A654]	0.1 to 1	0.1 to 1	0.01 to 0.1	0.1 to 1	0.1 to 1	0.01 to 0.1	0.01 to 0.1	0.1 to 1	0.01 to 0.1	0.1 to 1	0.1 to 1	0.1 to 1
CCn1c(-c2cccnc2[C@H](C)OC)c2c3cc(ccc31)-c1cccc(c1)C[C@H](NC(=O)[C@@H](COC1CN(C(=O)C#CC(C)(C)N(C)CCO)C1)C(C)C)C(=O)N1CCC[C@H](N1)C(=O)OCC(C)(C)C2 (atropisomer, axis not shown) [Example A657]	1 to 10	> 10	< 0.01	0.01 to 0.1	> 10	> 10	> 10	> 10	0.01 to 0.1	> 10	> 10	> 10
CCn1c(-c2cccnc2[C@H](C)OC)c2c3cc(ccc31)-c1csc(n1)C[C@H](NC(=O)[C@@H](COC1CN(C(=O)C#CC(C)(C)N(C)C)C1)OC)C(=O)N1CCC[C@H](N1)C(=O)OCC(C)(C)C2 (atropisomer, axis not shown) [Example A660]	0.1 to 1	0.1 to 1	< 0.01	< 0.01	0.1 to 1	0.1 to 1	0.1 to 1	1 to 10	< 0.01	1 to 10	0.1 to 1	1 to 10
C=CC(=O)N1CC[C@@]2(CCN2C(=O)N(C)[C@H](C(=O)N[C@H]2Cc3nc(cs3)-c3ccc4c(c3)c(c(-c3cccnc3[C@H](C)OC)n4CC)CC(C)(C)COC(=O)[C@@H]3CCCN(N3)C2=O)C(C)C)C1 (atropisomer, axis not shown) [Example A661]	0.1 to 1	0.1 to 1	< 0.01	0.01 to 0.1	0.1 to 1	0.01 to 0.1	0.01 to 0.1	0.1 to 1	0.01 to 0.1	0.1 to 1	1 to 10	1 to 10
CCn1c(-c2cccnc2[C@H](C)OC)c2c3cc(ccc31)C1=CCCN(C1)C[C@H](NC(=O)[C@@H](COC1CN(C(=O)C#CC(C)(C)N(C)C)C1)C(C)C)C(=O)N1CCC[C@H](N1)C(=O)OCC(C)(C)C2 (atropisomer, axis not shown) [Example A663, (2R)-2-(((1-(4-(dimethylamino)-4-methylpent-2-ynoyl)405yridine405-3-yl)oxy)methyl)-N-((6^3S,4S)-1^1-ethyl-1^2-(2-((S)-1-methoxyethyl)405yridine-3-yl)-10,10-dimethyl-5,7-dioxo-2^1,2^2,2^3,2^6,6^1,6^2,6^3,6^4,6^5,6^6-decahydro-1^1H-8-oxa-1(5,3)-indola-6(1,3)-pyridazina-2(5,1)-pyridinacycloundecaphane-4-yl)-3-methylbutanamide]	1 to 10	> 10	< 0.01	< 0.01	> 10	> 10	> 10	> 10	< 0.01	> 10	> 10	> 10
CCn1c(-c2cccnc2[C@H](C)OC)c2c3cc(ccc31)-c1csc(n1)C[C@H](NC(=O)[C@H](C(C)C)N(C)C(=O)N1CCN(C(=O)/C=C/CN3CCOCC3)C3(CC3)C1)C(=O)N1CCC[C@H](N1)C(=O)OCC(C)(C)C2 (atropisomer, axis not shown) [Example A665]	0.1 to 1	0.01 to 0.1	< 0.01	0.01 to 0.1	0.01 to 0.1	0.01 to 0.1	0.01 to 0.1	0.01 to 0.1	0.01 to 0.1	0.01 to 0.1	0.01 to 0.1	0.1 to 1
CCn1c(-c2cccnc2[C@H](C)OC)c2c3cc(ccc31)-c1csc(n1)C[C@H](NC(=O)[C@H](C(C)C)N(C)C(=O)N1CCC3(CC1)CN(C(=O)/C=C/CN1CCOCC1)C3)C(=O)N1CCC[C@H](N1)C(=O)OCC(C)(C)C2 (atropisomer, axis not shown) [Example A669]	0.1 to 1	0.01 to 0.1	0.01 to 0.1	0.01 to 0.1	0.1 to 1	0.01 to 0.1	0.01 to 0.1	0.01 to 0.1	0.01 to 0.1	0.1 to 1	0.1 to 1	0.1 to 1
CCn1c(-c2cccnc2[C@H](C)OC)c2c3cc(ccc31)-c1csc(n1)C[C@H](NC(=O)[C@H](C(C)C)N(C)C(=O)N1CCC3(CC1)CN(C(=O)/C=C/CN1CCCCC1)C3)C(=O)N1CCC[C@H](N1)C(=O)OCC(C)(C)C2 (atropisomer, axis not shown) [Example A670]	0.1 to 1	0.1 to 1	0.01 to 0.1	0.1 to 1	0.1 to 1	0.1 to 1	0.1 to 1	0.1 to 1	0.1 to 1	0.1 to 1	0.1 to 1	1 to 10
C/C=C/C(=O)N1CC2(CCN(C(=O)N(C)[C@H](C(=O)N[C@H]3Cc4nc(cs4)-c4ccc5c(c4)c(c(-c4cccnc4[C@H](C)OC)n5CC)CC(C)(C)COC(=O)[C@@H]4CCCN(N4)C3=O)C(C)C)CC2)C1 (atropisomer, axis not shown) [Example A671]	0.1 to 1	0.1 to 1	0.01 to 0.1	0.01 to 0.1	0.1 to 1	0.01 to 0.1	0.01 to 0.1	0.1 to 1	0.01 to 0.1	0.1 to 1	0.1 to 1	0.1 to 1
CCn1c(-c2cccnc2[C@H](C)OC)c2c3cc(ccc31)-c1nc(co1)C[C@H](NC(=O)[C@@H](COC1CN(C(=O)C#CC(C)(C)N(C)C)C1)C(C)C)C(=O)N1CCC[C@H](N1)C(=O)OCC(C)(C)C2 (atropisomer, axis not shown) [Example A675, (2R)-2-(((1-(4-(dimethylamino)-4-methylpent-2-ynoyl)azetidin-3-yl)oxy)methyl)-N-((6^3S,4S,Z)-1^1-ethyl-1^2-(2-((S)-1-methoxyethyl)pyridin-3-yl)-10,10-dimethyl-5,7-dioxo-6^1,6^2,6^3,6^4,6^5,6^6-hexahydro-1^1H-8-oxa-2(2,4)-oxazola-1(5,3)-indola-6(1,3)-pyridazinacycloundecaphane-4-yl)-3-methylbutanamide]	> 10	> 10	< 0.01	0.01 to 0.1	> 10	> 10	> 10	> 10	0.01 to 0.1	> 10	> 10	> 10
C=CC(=O)N1CCN(C(=O)N(C)[C@H](C(=O)N[C@H]2Cc3nc(cs3)-c3ccc4c(c3)c(c(-c3cccnc3[C@H](C)OC)n4CC(F)(F)F)CC(C)(C)COC(=O)[C@@H]3CCCN(N3)C2=O)C(C)C)CC12CC2 (atropisomer, axis not shown) [Example A679]	0.01 to 0.1	0.01 to 0.1	0.01 to 0.1	0.01 to 0.1	0.01 to 0.1	0.01 to 0.1	0.01 to 0.1	0.01 to 0.1	0.01 to 0.1	0.01 to 0.1	0.01 to 0.1	0.1 to 1
